These results are taken from patent US20070099986A1, “Preventives/remedies for urinary disturbance” (priority 2005, published 2007).

The structures appear in SMILES notation. pIC50: −log10 of the molar value. Counter-ions that a name gives are not always drawn.

As usually defined, the melting point is the temperature, or range, at which the solid turns liquid. A word on the pIC50: it is −log10 of the IC50, conventionally taken in molar units.

Test system in the first series: not given
Experiment: not given
Settings: not given
Compound `Cl.NS(=O)(=O)c1cc(C(=O)CCCCNCCc2ccccc2OC(F)(F)F)cc2c1CCC2` gave a melting point of 139 to 141 °C. The same measure, in the same setting: the same measure for `Cl.NS(=O)(=O)c1cc(C(=O)CCCCCNCCc2ccccc2OC(F)(F)F)cc2c1OCC2`: 85 to 87 °C. The same measure, in the same setting: under `COc1ccccc1CCNCCCCCC(=O)c1cc2c(c(S(N)(=O)=O)c1)OCC2.Cl` stands 92 to 94 °C. Same read-out and setting: the same measure for `Cl.NS(=O)(=O)c1cc(C(=O)CCCCCNCCc2ccccc2Cl)cc2c1OCC2`: 107 to 109 °C; for `CNS(=O)(=O)c1cc(C(=O)CCCCNCCc2ccccc2OC(F)(F)F)cc2c1OCC2.Cl`: 135 to 137 °C; for `CC(C)NS(=O)(=O)c1cc(C(=O)CCCCNCCc2ccccc2OC(F)(F)F)cc2c1OCC2.Cl`: 173 to 175 °C. `COc1ccc(C(=O)CCCCNCCc2ccccc2OC(F)(F)F)cc1S(N)(=O)=O.Cl` had a melting point of 169 to 171 °C. Compound `COc1ccc(C(=O)CCCCNCCc2ccccc2OC(F)(F)F)cc1S(=O)(=O)NC(C)C.Cl` returned a melting point of 156 to 158 °C. As to `Cl.NS(=O)(=O)c1cc(C(=O)CCCCNCCc2ccccc2OC(F)(F)F)cc2c1OCCO2`, the melting point fell in the range of 111 to 113 °C. The same measure, in the same setting: the same measure for `CC(=O)Nc1cc(C(=O)CCCCNCCc2ccccc2OC(F)(F)F)cc2c1OCC2.Cl`: 120 to 122 °C.

Turning to `COc1ccccc1CCNCCCCC(=O)c1cc2c(c(S(N)(=O)=O)c1)CCC2.Cl`, the melting point lay within 106 to 108 °C. Still for that read-out and setting: the same measure for `CS(=O)(=O)Nc1cc(C(=O)CCCCNCCc2ccccc2OC(F)(F)F)cc2c1OCC2.Cl`: 112 to 114 °C; for `NS(=O)(=O)c1cc(C(O)CCCCNCCc2ccccc2OC(F)(F)F)cc2c1OCC2.O=C(O)/C=C\C(=O)O` (stereo not shown): 61 to 63 °C. In turn, `Cl.NS(=O)(=O)c1cc(C(=O)CCCCNCCc2ccccc2Cl)cc2c1CCC2` returned a melting point of 167 to 169 °C. Same read-out and setting: the same measure for `CNS(=O)(=O)c1cc(C(=O)CCCCNCCc2ccccc2OC(F)(F)F)cc2c1CCC2.Cl`: 143 to 145 °C.

The target of the next series is T1, acetylcholinesterase from human erythrocyte origin (Homo sapiens, UniProt P22303).
T1 construct: Acetylcholinesterase from human erythrocyte origin (Sigma Chemical Co.); purchased Sigma Chemical Co; host or cells: human erythrocytes (tissue-derived enzyme)
T1 sequence (P22303 32-617 isoform P22303-2 limits assumed): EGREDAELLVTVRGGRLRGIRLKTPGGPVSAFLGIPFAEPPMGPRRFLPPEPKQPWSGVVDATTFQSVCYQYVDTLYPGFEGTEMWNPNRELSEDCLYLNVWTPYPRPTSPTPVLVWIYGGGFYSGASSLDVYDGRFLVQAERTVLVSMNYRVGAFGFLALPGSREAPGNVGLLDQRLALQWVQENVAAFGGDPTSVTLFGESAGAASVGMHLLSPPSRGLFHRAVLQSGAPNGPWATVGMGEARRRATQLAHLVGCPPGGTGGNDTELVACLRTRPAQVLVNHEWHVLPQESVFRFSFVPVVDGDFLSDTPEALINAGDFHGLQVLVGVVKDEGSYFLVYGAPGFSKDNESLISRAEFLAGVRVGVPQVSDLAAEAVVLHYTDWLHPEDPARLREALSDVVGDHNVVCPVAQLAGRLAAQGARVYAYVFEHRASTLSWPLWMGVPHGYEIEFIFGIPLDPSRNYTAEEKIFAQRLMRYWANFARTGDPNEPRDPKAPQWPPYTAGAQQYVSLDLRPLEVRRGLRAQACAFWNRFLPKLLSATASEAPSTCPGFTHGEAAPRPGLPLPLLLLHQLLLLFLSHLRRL
Nature of the series: Acetylcholinesterase-inhibitory action, acetylthiocholine method (Ellman method). Type of series: biochemical. As to conditions: repeated at least 3 times, read-out: AChE: IC50. The method, then: a) Measurement of Acetylcholinesterase-Inhibitory Action
Acetylcholinesterase-inhibitory action of the Example Compounds was measured using acetylcholinesterase from human erythrocyte origin according to the acetylthiocholine method (Ellman method).
Acetylcholinesterase from human erythrocyte origin (Sigma Chemical Co.) was dissolved in distilled water at a concentration of 0.2 IU/mL to give an enzyme authentic sample. To a 96-well microplate 20 μL of drug solution, 30 μL of 80 mM Tris-HCl (pH 7.4), 50 μL of enzyme authentic sample and 50 μL of 5 mM 5,5-dithio-bis(2-nitrobenzoic acid) (Sigma Chemical Co.) were added, and the plate was shaken for 10 seconds. Then, 50 μL of acetylthiocholine iodide (Sigma Chemical Co.) was added, and the plate was again shaken. Immediately after shaking, absorbance at 414 nm was measured at intervals of 30 seconds for 10 minutes.
The experiment was repeated at least 3 times for each compound to obtain 50% inhibitory concentration (IC50). Moreover, in the same manner as mentioned above, acetylcholinesterase-inhibiting activity of distigmine was measured.
On the technique in general: In Ellman's method for cholinesterases, released thiocholine reacts with DTNB.
`CN(CCCCCCN(C)C(=O)Oc1ccc[n+](C)c1)C(=O)Oc1ccc[n+](C)c1` [Distigmine, distigmine, reference compound]: the pIC50 was 6.57. The same measure, in the same setting: under `NS(=O)(=O)c1cc(C(=O)CCCCNCCc2ccccc2OC(F)(F)F)cc2c1OCC2` [Example 6, 5-[5-({2-[2-(Trifluoromethoxy)phenyl]ethyl}amino)-pentanoyl]-2,3-dihydro-1-benzofuran-7-sulfonamide tosylate] stands 7.10.

In the next series the target is T2, human adrenaline α1A receptor (Homo sapiens, UniProt P35348).
T2 construct: expressed in transfected cells
T2 sequence (P35348 1-466): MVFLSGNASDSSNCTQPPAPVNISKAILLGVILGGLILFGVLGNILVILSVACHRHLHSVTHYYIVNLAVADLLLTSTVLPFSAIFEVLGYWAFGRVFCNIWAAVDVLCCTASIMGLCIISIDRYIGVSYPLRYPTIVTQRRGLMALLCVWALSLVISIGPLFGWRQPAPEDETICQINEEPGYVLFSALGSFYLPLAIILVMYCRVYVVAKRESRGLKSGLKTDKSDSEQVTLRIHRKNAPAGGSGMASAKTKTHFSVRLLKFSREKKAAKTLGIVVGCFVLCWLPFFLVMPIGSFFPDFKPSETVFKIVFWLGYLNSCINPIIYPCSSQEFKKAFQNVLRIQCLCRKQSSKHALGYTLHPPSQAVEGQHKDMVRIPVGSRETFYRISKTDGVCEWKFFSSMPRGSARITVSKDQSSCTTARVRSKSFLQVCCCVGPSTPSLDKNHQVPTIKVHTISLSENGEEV
Nature of the series: α1A receptor binding inhibitory activity, [3H]-Prazosin binding to CHO-K1 membrane fraction. Conditions: inhibition of [3H]-Prazosin (2.5 nM) binding to membrane fraction of CHO-K1 cells expressing human α1A receptor. The method, then: b) Measurement of α1 A Receptor Binding Inhibitory Activity
The genetic engineering procedures as described below were based on the methods described in the textbook (Maniatis, et al., Molecular Cloning, Cold Spring Harbor Laboratory, 1989) or the methods described in the protocols attached to the reagents.
(i) Preparation of Expression Plasmid of Human Adrenaline α1 A Receptor
An adrenaline α1 A receptor gene was cloned from human liver cDNA by means of a PCR method. PCR reaction was performed in a Gene Amp PCR System 9700 (Applied Biosystems) with 200 ng of a human liver cDNA library (Takara Shuzo Co., Ltd.) as a template, by adding 50 pmol of each of the primer sets shown below which were prepared with referring to the base sequence of the adrenaline α1 A receptor gene reported by Hirasawa A. et al. (Biochem. Biophys. Res. Commun., 195, 902-909 (1993)): 5′-[…]-3′ [SEQ ID NO: 1], and 5′-[…]-3′ [SEQ ID NO: 2], and using a TaKaRa Pyrobest DNA Polymerase (Takara Shuzo Co., Ltd.) (reaction condition: 45 cycles of 94° C. for 15 seconds and 68° C. for 3 minutes and 30 seconds).
Thus obtained PCR fragments were digested with a restriction enzyme Eco RI (Takara Shuzo Co., Ltd.) and Sal I (Takara Shuzo Co., Ltd.), and then subjected to electrophoresis on agarose gel to recover DNA fragments. […]
With `NS(=O)(=O)c1cc(C(=O)CCCCNCCc2ccccc2OC(F)(F)F)cc2c1OCC2` [Example 6, 5-[5-({2-[2-(Trifluoromethoxy)phenyl]ethyl}amino)-pentanoyl]-2,3-dihydro-1-benzofuran-7-sulfonamide tosylate], the pIC50 was 7.72. The same measure, in the same setting: the same measure for `COc1ccccc1N1CCN(CCCNc2cc(=O)n(C)c(=O)n2C)CC1` [Urapidil, urapidil, reference compound]: 6.33.
